According to patent US9012594B2, “Catalyst and byproduct-free native chemical ligation using cyclic thioester precursors” (Northwestern University, priority 2010, dated 2015):

Test system: cells
Test: Cell adhesion on peptide-functionalized hydrogel
Format: cell-based
Conditions: peptide at 1% of the total cysteine groups used for hydrogel formation
Description: The methods of macromonomer and hydrogel formation described herein provide biocompatible macromonomers and hydrogels which are easily modified with bioactive materials to improve functions of encapsulated cells such as supporting cell growth, and the development and secretion of cellular products upon biological stimulus. By “bioactive” we mean a substance that has or cause an effect on in biological samples. In this work, the macromonomers and hydrogels were further functionalized with peptides, although other bioactive materials may be used, such as proteins, growth factors, DNA, RNA. Peptides were functionalized through the Michael addition reaction between 4A-PEG-Cys and maleimide-terminated peptides prior to the cross-linking between 4A-PEG-Cys and 4A-PEG-CThE. This reaction is quantitative and fast, providing a good control over the density of peptides attached to the resulted hydrogel. Such strategy works well, when the physiological effects of peptides on cells can be achieved at low immobilization density.

**Q.** How did the cell adhesion turn out when “GRGDSPG (maleimide-GRGDSPG-NH2; also: conjugated to 4A-PEG-Cys) [cell adhesion peptide, maleimide-terminated, attached to 4A-PEG-Cys by Michael addition]” was run?
**A.** sufficient to support cell adhesion
